{"source": "paper PMC12595434", "about": "“Development of retinoid nuclear receptor pathway antagonists through targeting aldehyde dehydrogenase 1A3” (iScience, 2025)", "key": {"PDE3A": {"molecular_target": "PDE3A (Homo sapiens, UniProt Q14432)", "sequence (Q14432 whole entry)": "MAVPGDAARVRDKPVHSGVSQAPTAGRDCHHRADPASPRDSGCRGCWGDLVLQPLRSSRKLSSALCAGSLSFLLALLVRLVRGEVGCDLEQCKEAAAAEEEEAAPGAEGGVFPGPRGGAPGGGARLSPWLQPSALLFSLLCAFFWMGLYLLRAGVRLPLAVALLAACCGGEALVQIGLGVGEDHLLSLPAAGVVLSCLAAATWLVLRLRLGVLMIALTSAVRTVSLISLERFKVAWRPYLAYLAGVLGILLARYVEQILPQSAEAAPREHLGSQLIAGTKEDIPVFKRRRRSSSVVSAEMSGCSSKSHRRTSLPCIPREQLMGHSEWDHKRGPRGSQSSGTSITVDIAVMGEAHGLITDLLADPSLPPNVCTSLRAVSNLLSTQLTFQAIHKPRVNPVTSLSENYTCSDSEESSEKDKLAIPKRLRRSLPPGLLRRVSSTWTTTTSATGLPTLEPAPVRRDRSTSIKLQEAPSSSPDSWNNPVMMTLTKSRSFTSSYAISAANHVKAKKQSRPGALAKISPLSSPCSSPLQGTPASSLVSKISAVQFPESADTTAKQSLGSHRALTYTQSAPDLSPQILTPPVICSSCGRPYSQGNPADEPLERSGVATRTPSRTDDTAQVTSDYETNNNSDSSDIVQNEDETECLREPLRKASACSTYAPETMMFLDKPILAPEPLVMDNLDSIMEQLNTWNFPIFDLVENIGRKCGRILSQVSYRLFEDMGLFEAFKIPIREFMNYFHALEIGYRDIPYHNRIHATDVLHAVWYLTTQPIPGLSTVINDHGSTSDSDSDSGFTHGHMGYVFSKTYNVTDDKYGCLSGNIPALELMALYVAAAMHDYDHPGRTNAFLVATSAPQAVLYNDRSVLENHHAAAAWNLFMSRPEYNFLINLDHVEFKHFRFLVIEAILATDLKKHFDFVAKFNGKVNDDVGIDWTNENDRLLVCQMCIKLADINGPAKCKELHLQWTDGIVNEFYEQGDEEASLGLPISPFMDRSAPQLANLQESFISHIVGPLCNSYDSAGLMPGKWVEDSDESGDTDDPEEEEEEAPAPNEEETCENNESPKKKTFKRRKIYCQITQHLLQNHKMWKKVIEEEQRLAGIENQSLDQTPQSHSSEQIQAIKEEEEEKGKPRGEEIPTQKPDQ", "test": "Off-target profiling panel", "assay_type": "biochemical"}, "NMDA": {"test_system": "NMDA", "test": "Off-target profiling panel", "assay_type": "binding", "conditions": "10 μM"}, "5HT3": {"molecular_target": "5HT3 (Homo sapiens, UniProt P46098)", "sequence (P46098 24-478)": "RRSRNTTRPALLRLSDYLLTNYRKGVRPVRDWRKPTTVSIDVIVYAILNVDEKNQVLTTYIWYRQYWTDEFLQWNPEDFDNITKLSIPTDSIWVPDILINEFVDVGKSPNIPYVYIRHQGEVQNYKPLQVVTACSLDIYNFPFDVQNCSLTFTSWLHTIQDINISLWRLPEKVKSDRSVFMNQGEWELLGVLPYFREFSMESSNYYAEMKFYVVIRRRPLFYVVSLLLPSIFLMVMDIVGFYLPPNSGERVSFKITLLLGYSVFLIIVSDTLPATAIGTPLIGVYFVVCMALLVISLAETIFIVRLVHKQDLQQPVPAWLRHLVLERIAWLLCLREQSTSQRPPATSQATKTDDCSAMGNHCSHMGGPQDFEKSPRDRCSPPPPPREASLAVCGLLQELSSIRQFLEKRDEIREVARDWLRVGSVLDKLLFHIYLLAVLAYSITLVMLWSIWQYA", "test": "Off-target profiling panel", "assay_type": "binding", "conditions": "read-out: Inhibition by MBE1 at 10 μM (%)"}, "op-delta": {"molecular_target": "op-delta (Homo sapiens, UniProt P41143)", "test": "Off-target profiling panel", "assay_type": "binding", "conditions": "read-out: Inhibition by MBE1 at 10 μM (%)"}, "CCKa": {"molecular_target": "CCKa (Homo sapiens, UniProt P32238)", "sequence (P32238 whole entry)": "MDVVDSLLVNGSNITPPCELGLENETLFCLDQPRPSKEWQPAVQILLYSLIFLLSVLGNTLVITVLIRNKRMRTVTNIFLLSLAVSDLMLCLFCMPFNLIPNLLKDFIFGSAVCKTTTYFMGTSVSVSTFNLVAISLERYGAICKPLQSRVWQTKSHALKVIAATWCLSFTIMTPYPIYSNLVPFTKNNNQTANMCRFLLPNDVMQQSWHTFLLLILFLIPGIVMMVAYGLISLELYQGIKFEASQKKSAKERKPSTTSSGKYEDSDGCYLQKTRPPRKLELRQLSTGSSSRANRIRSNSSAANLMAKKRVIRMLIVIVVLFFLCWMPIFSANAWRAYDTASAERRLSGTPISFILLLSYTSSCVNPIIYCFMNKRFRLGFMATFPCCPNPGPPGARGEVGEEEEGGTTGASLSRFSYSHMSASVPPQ", "test": "Off-target profiling panel", "assay_type": "binding", "conditions": "read-out: Inhibition by MBE1 at 10 μM (%)"}, "NPTN": {"test_system": "NPTN", "test": "Cellular thermal shift assay (CETSA) in A375 cells", "assay_type": "cell-based, human", "conditions": "100 nM, 1h at 37°C", "method": "CETSA was performed according to protocols described before.[85] Briefly, 6 × 10cm dishes of A375 cells were collected and treated with 100 nM MBE1 or 0.1% DMSO for 1h at 37°C. Afterward, cells were pelleted through centrifugation at 300g for 5 min. Cells were then washed with ice-cold PBS and resuspended in 800 μL of PBS. Cell suspension was aliquoted to 7xPCR tubes with 100 μL each and subjected to thermal denaturation at 46.3, 48.6, 52.2, 56.5, 60.1, 62.5, 64.0°C for 3 min. The resulting sample was snap frozen in liquid nitrogen followed by incubation at room temperature until fully thawed. This procedure was performed twice followed by brief vortexing and mixing to release soluble proteins from the cells. Samples were then transferred to 1.5 mL Eppendorf tubes and centrifuged at 20,000g for 20 min at 4°C, 90 μL of the resulting supernatant was collected into another new 1.5 mL Eppendorf tube and subjected to protein analysis by western blot (WB). NPTN (proteintech #28022-1-AP) and ALDH1A3 (abcam #ab129815) were used to detect target proteins while GelCode Blue Stain Reagent (Thermofisher scientific #24590) was used to stain for total proteins loaded in the WB analysis."}, "ALDH1A3": {"molecular_target": "T1, ALDH1A3 (Homo sapiens, UniProt P47895)", "T1 sequence (P47895 1-512)": "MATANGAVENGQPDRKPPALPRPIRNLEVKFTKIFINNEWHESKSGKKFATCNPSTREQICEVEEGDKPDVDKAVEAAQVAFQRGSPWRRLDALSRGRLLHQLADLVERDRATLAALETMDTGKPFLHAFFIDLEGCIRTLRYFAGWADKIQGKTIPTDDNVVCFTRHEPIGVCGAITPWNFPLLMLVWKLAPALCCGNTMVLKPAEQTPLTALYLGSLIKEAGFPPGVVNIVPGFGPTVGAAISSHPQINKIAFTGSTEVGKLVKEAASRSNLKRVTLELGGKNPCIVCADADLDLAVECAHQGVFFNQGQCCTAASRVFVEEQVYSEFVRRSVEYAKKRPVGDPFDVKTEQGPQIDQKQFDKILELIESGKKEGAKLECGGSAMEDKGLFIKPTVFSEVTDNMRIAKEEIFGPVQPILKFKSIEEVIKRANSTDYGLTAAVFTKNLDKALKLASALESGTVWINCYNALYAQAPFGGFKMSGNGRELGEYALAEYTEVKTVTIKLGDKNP", "test": "Thermal proteome profiling (TPP) in A375 cells", "assay_type": "cell-based", "set-up": "endogenous in cells; host or cells: A375 cells", "conditions": "100 nM and 1 μM MBE1, A375 cells"}, "GABAA": {"test_system": "GABAA", "test": "Off-target profiling panel"}, "mouse T cells": {"test_system": "mouse T cells", "test": "T cell proliferation (CFSE) co-culture with myeloid cells", "assay_type": "cell-based", "conditions": "1 μM MBE1 treatment of B16F10-ALDH1A3 cells", "method": "Next, to simulate paracrine signaling from tumor cells, we collected conditioned media from isogenic B16F10 cells stably expressing either vector or ALDH1A3 and added the media to the myeloid cells prior to culturing with T cells.\nBone marrow derived monocytes were enriched using MACS isolation (#130-100-629) and >95% purity of monocytes was confirmed by staining with Ly6C-PE (Clone# HK1.4; Biolegend 128008). Monocytes were cultured in RPMI1640 at 1M/well in a 6-well plate. 20 ng/ml mGM-CSF (peprotech) and 20 ng/ml mIL-4 (peprotech) were used to differentiate monocytes to monocyte derived dendritic cells (MoDCs). 100 nM atRA or 0.1% DMSO was used to treat the cells. 3 days later, floating cells were collected and 20,000 of them were cocultured with 100,000 CD4^+ T cell labeled with CFSE (Thermo fisher scientific) at 1:5000. T cell proliferation was examined ∼72hrs after the coculture. When conditioned medium was used in differentiating MoDCs, conditioned medium was first collected from 500,000 B16-vector control cells vs. B16-mALDH1A3 cells with or without 1 μM MBE1 treatment cultured in 1.5 mL medium in a 6-well plate for ∼24hrs. Fresh RPMI1640 and conditioned medium were mixed 1:1 before applying to MoDC culture. In parallel, fresh RPMI1640 medium alone is used as a control. […]"}, "FAM204A": {"molecular_target": "T2, FAM204A (Homo sapiens, UniProt Q9H8W3)", "T2 construct": "Treated A375 cells were harvested from 10 × 15 cm plates; endogenous in cells; host or cells: A375 melanoma cells", "T2 sequence (Q9H8W3 whole entry)": "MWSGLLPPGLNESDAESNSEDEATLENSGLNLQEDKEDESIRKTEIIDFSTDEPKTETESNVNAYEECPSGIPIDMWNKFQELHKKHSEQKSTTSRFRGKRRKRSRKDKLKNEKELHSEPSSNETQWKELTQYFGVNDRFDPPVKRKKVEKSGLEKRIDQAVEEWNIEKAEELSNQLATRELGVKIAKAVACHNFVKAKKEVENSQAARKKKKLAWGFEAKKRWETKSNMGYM", "test": "Thermal proteome profiling (TPP) in A375 cells", "assay_type": "cell-based"}, "nACHR-Alpha7": {"molecular_target": "nACHR-Alpha7 (Homo sapiens, UniProt P36544)", "test": "biochemical", "assay_type": "binding", "conditions": "read-out: Inhibition by MBE1 at 10 μM (%)"}, "Beta2": {"molecular_target": "Beta2 (Homo sapiens, UniProt P07550)", "sequence (P07550 whole entry)": "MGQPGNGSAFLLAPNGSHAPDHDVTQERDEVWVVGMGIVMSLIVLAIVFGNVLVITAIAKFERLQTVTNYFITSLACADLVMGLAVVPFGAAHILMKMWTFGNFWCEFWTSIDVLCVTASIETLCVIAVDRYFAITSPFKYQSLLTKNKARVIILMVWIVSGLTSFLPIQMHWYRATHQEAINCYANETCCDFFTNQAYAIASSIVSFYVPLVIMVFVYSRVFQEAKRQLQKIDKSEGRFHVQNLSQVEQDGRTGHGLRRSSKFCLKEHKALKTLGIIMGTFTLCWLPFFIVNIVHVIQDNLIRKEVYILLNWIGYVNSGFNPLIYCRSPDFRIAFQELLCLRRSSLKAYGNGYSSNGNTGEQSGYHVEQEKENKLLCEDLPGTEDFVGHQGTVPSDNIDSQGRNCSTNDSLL", "test": "Off-target profiling panel", "assay_type": "binding", "conditions": "read-out: Inhibition by MBE1 at 10 μM (%)"}, "ADORA2A": {"molecular_target": "ADORA2A (Homo sapiens, UniProt P29274)", "sequence (P29274 whole entry)": "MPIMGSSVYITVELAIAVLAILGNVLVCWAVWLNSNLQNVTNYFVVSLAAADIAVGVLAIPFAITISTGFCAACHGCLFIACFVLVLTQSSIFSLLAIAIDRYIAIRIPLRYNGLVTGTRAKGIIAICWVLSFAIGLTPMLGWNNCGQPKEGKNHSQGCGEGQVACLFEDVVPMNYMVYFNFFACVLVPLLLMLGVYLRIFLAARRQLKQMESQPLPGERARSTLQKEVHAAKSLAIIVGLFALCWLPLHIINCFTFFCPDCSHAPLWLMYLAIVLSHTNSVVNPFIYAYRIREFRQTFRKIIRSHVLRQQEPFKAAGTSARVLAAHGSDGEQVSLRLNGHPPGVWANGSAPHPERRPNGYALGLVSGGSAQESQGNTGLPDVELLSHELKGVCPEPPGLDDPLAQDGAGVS", "test": "Off-target profiling panel", "assay_type": "binding", "conditions": "read-out: Inhibition by MBE1 at 10 μM (%)"}, "V1A": {"molecular_target": "V1A (Homo sapiens, UniProt P37288)", "sequence (P37288 whole entry)": "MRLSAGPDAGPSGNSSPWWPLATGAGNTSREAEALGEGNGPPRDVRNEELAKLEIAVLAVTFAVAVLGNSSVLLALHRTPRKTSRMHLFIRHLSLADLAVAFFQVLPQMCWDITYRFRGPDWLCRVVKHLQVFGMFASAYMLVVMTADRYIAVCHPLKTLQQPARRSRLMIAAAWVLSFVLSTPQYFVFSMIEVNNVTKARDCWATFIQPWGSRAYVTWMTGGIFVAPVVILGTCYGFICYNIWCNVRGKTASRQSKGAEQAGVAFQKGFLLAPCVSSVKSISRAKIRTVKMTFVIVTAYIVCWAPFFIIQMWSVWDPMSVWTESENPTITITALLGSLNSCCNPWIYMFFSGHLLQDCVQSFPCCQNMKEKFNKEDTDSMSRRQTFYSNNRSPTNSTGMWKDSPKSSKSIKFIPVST", "test": "Off-target profiling panel", "assay_type": "binding", "conditions": "read-out: Inhibition by MBE1 at 10 μM (%)"}, "T3-MCA tumors": {"test_system": "T3-MCA tumors", "test": "Tumor infiltrating immune cell profiling of T3-MCA tumors", "conditions": "oral gavage, 7 days of treatment"}, "H2": {"molecular_target": "H2 (Homo sapiens, UniProt P25021)", "sequence (P25021 whole entry)": "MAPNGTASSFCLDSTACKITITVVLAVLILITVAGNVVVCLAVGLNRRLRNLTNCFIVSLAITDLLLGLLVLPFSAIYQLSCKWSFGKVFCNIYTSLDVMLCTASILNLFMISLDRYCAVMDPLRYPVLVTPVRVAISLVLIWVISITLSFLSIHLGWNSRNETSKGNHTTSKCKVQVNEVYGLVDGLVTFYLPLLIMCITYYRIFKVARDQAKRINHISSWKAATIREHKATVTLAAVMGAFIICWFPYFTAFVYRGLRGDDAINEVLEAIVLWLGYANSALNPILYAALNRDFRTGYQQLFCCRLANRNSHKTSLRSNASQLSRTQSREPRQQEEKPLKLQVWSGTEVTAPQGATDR", "test": "Off-target profiling panel", "assay_type": "binding", "conditions": "read-out: Inhibition by MBE1 at 10 μM (%)"}, "DAT": {"molecular_target": "DAT (Homo sapiens, UniProt Q01959)", "sequence (Q01959 whole entry)": "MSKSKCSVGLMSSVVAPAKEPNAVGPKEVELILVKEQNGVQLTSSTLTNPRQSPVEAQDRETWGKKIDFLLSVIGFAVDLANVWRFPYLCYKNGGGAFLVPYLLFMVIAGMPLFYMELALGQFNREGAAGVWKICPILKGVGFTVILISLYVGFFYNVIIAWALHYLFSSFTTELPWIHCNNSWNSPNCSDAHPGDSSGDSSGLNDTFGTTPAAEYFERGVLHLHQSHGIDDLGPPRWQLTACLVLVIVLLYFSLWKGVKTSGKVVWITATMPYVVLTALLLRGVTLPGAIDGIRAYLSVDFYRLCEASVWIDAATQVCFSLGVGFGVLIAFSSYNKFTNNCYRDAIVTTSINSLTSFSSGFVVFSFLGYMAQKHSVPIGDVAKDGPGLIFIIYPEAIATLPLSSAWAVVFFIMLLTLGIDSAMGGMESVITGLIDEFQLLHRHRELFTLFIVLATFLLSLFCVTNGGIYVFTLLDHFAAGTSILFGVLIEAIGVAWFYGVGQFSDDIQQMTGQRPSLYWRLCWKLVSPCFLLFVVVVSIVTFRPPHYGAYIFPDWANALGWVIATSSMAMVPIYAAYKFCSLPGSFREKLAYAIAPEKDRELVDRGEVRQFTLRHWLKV", "test": "Off-target profiling panel", "assay_type": "binding", "conditions": "read-out: Inhibition by MBE1 at 10 μM (%)"}, "5HT1a": {"molecular_target": "5HT1a (Homo sapiens, UniProt P08908)", "sequence (P08908 whole entry)": "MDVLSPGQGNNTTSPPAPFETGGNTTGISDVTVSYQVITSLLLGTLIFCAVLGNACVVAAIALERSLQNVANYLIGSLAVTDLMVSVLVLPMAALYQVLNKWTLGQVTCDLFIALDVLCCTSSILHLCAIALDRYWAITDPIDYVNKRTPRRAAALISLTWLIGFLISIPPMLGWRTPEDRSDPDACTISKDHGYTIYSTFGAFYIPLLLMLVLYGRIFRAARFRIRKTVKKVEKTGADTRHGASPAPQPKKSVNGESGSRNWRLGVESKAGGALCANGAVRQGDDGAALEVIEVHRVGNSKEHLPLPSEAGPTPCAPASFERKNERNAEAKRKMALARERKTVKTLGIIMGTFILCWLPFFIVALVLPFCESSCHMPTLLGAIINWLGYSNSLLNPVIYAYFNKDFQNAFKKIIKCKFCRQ", "test": "Off-target profiling panel", "assay_type": "binding", "conditions": "read-out: Inhibition by MBE1 at 10 μM (%)"}, "Ca2+-L": {"test_system": "Ca2+-L", "test": "Off-target profiling panel", "assay_type": "binding", "conditions": "10 μM"}}}
{"smiles": "CCc1cnccc1C(=O)Nc1cc2c(cc1F)NC(=O)CC2", "note": "[MBE1, 3-ethyl-N-(7-fluoro-2-oxo-3,4-dihydro-1H-quinolin-6-yl)pyridine-4-carboxamide]", "values": [{"measurement": "inhibition at 10 µM", "setting": "PDE3A; read-out: Inhibition by MBE1 at 10 μM (%)", "value": 75.8, "unit": "%"}, {"measurement": "concentration for PDE3α interaction as multiple of IC50 against ALDH1A3", "setting": "PDE3A; screen against 44 off-target proteins", "value": "> 100", "unit": "fold"}, {"measurement": "Inhibition by MBE1 at 10 μM (%)", "setting": "NMDA", "value": "−13.59", "unit": "%"}, {"measurement": "inhibition at 10 µM", "setting": "5HT3", "value": -18.6, "unit": "%"}, {"measurement": "inhibition at 10 µM", "setting": "op-delta", "value": 5.54, "unit": "%"}, {"measurement": "inhibition at 10 µM", "setting": "CCKa", "value": -1.45, "unit": "%"}, {"measurement": "stabilization of NPTN in CETSA (in words)", "setting": "NPTN", "value": "not stabilized"}, {"measurement": "thermal stabilization of ALDH1A3 in TPP (in words)", "setting": "ALDH1A3", "value": "stabilized"}, {"measurement": "Inhibition by MBE1 at 10 μM (%)", "setting": "GABAA", "value": "−5.08", "unit": "%"}, {"measurement": "T cell proliferation block by B16F10-ALDH1A3 conditioned media (in words)", "setting": "mouse T cells", "value": "proliferation block disappeared"}, {"measurement": "100nM MBE1 Tm", "setting": "FAM204A", "value": 63.4426}, {"measurement": "DMSO-100nM MBE1 TM", "setting": "FAM204A", "value": -8.6993}, {"measurement": "inhibition at 10 µM", "setting": "nACHR-Alpha7", "value": -9.85, "unit": "%"}, {"measurement": "inhibition at 10 µM", "setting": "Beta2", "value": 3.23, "unit": "%"}, {"measurement": "inhibition at 10 µM", "setting": "ADORA2A", "value": -15.7, "unit": "%"}, {"measurement": "inhibition at 10 µM", "setting": "V1A", "value": 5.88, "unit": "%"}, {"measurement": "CD4 T cells as percentage of total CD45^+ immune cells (in words)", "setting": "T3-MCA tumors", "value": "increased CD4 T cells"}, {"measurement": "inhibition at 10 µM", "setting": "H2", "value": 4.29, "unit": "%"}, {"measurement": "inhibition at 10 µM", "setting": "DAT", "value": -13.1, "unit": "%"}, {"measurement": "inhibition at 10 µM", "setting": "5HT1a", "value": 3.78, "unit": "%"}, {"measurement": "Inhibition by MBE1 at 10 μM (%)", "setting": "Ca2+-L", "value": "−0.09", "unit": "%"}]}
